According to ChEMBL document CHEMBL5108025, “New thiazole-based derivatives as EGFR/HER2 and DHFR inhibitors: Synthesis, molecular modeling simulations and anticancer activity” (Eur J Med Chem, 2022):
Active and inactive are the calls of the source. The rule behind the calls is not given here.

Legend:
[1] = Toxicity in 7,12-dimethylbenz [a]anthracene-induced non-lactating mammary glands solid tumor model of female Swiss albino mouse assessed as mean body weight at 2 mg/kg, ip; assay type: organism-based; settings: in vivo
Breast carcinoma cell = assay: Induction of apoptosis in human breast cancer cells assessed as normalization of caspase-3 expression measured as caspase-3 score; assay type: functional, Breast cancer cell line
[2] = Antitumor activity in 7,12-dimethylbenz [a]anthracene-induced non-lactating mammary glands solid tumor model of female Swiss albino mouse assessed as reduction in tumor volume at 2 mg/kg, ip; assay type: functional; set-up: scale not given: the % may be the effect or the level left
[3] = Toxicity in 7,12-dimethylbenz [a]anthracene-induced non-lactating mammary glands solid tumor model of female Swiss albino mouse assessed as reduction in body weight at 2 mg/kg, ip; assay type: organism-based; set-up: scale not given: the % may be the effect or the level left; settings: in vivo
PC-3 = assay: Antiproliferative activity against human PC-3 cells after 72 hrs by MTT assay; assay type: functional, cell-based; settings: PC-3, 72 h
HeLa = assay: Antiproliferative activity against human HeLa cells after 72 hrs by MTT assay; assay type: functional, cell-based
[4] = Antitumor activity in 7,12-dimethylbenz [a]anthracene-induced non-lactating mammary glands solid tumor model of female Swiss albino mouse assessed as mean tumor volume at 2 mg/kg, ip; assay type: functional
[5] = Antitumor activity in 7,12-dimethylbenz [a]anthracene-induced non-lactating mammary glands solid tumor model of female Swiss albino mouse assessed as mean tumor volume at 10 mg/kg, ip; assay type: functional
MCF7 [6] = assay: Induction of apoptosis in human MCF7 cells assessed as late apoptotic cells level measured by propidium iodide/RNAse staining based flow cytometry analysis (reference value: 0.22%); assay type: functional
HCT-116 = assay: cells; settings: Homo sapiens, HCT-116, 72 h
Description: Antiproliferative activity against human HCT-116 cells after 72 hrs by MTT assay

[7] = Toxicity in 7,12-dimethylbenz [a]anthracene-induced non-lactating mammary glands solid tumor model of female Swiss albino mouse assessed as reduction in body weight at 10 mg/kg, ip; assay type: organism-based; set-up: scale not given: the % may be the effect or the level left; settings: in vivo
MCF7 [8] = assay: Induction of cell cycle arrest in human MCF7 cells assessed as decrease in DNA content at G2/M phase measured by propidium iodide/RNAse staining based flow cytometry analysis (reference value: 13.4%); assay type: functional; set-up: scale not given: the % may be the effect or the level left
[9] = target: Epidermal growth factor receptor (Homo sapiens, UniProt P00533)
Epidermal growth factor receptor, sequence (P00533 whole entry): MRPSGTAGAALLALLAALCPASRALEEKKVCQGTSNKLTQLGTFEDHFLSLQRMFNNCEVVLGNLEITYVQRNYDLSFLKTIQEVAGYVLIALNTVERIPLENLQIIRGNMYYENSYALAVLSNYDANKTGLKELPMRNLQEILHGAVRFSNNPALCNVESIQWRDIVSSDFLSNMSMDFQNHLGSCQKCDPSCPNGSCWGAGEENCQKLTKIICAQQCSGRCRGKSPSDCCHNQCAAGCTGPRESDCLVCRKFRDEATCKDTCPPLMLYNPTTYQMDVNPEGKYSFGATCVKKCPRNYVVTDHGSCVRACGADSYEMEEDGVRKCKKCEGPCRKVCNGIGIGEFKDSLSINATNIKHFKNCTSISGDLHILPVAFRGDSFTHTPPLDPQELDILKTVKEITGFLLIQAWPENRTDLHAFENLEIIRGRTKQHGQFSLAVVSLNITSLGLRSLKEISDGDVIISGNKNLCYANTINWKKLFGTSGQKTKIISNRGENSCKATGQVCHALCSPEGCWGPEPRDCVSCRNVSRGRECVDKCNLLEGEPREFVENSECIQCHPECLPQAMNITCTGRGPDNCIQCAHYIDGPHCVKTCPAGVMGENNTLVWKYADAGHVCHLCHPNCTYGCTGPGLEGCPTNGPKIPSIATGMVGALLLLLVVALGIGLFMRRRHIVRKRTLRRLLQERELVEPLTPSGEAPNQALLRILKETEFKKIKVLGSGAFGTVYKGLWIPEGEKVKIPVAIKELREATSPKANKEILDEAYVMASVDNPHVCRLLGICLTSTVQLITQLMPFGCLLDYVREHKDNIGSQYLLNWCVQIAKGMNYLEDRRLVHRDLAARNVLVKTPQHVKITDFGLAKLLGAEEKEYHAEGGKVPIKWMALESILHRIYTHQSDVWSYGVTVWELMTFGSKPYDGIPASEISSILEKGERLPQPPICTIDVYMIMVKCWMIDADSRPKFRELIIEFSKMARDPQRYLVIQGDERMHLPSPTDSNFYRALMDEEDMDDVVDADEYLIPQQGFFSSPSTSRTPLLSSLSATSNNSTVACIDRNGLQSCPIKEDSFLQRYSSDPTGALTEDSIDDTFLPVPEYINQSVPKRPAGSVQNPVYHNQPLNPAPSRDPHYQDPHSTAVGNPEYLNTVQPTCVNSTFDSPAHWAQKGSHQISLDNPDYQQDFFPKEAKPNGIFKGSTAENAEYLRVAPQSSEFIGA
Description: Inhibition of recombinant human EGFR incubated for 40 to 45 mins and measured after 15 mins by Kinase-Glo Max assay

[10] = Toxicity in 7,12-dimethylbenz [a]anthracene-induced non-lactating mammary glands solid tumor model of female Swiss albino mouse assessed as mean body weight at 10 mg/kg, ip; assay type: organism-based; settings: in vivo
WI-38 = assay: Antiproliferative activity against human WI-38 cells after 72 hrs by MTT assay; assay type: functional, cell-based; settings: WI-38, 72 h
[11] = Antitumor activity in 7,12-dimethylbenz [a]anthracene-induced non-lactating mammary glands solid tumor model of female Swiss albino mouse assessed as reduction in tumor volume at 10 mg/kg, ip; assay type: functional; set-up: scale not given: the % may be the effect or the level left
MCF7 [12] = assay: cells; settings: Homo sapiens, MCF7, 72 h
HepG2 = assay: cells; settings: Homo sapiens, HepG2, 72 h
MCF7 [13] = assay: Induction of apoptosis in human MCF7 cells assessed as total apoptotic cells level measured by propidium iodide/RNAse staining based flow cytometry analysis (reference value: 0.73%); assay type: functional
Dihydrofolate reductase = target: T1, Dihydrofolate reductase (Homo sapiens, UniProt P00374); assay: Inhibition of recombinant human DHFR expressed in Escherichia coli incubated for 15 mins and measured by ELISA
T1 sequence (P00374 whole entry): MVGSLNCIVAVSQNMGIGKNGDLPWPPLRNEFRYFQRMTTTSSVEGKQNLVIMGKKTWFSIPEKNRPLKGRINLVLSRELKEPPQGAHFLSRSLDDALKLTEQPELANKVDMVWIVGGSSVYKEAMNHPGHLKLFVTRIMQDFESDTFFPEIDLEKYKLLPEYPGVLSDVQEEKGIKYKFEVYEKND

MCF7 [14] = assay: Induction of cell cycle arrest in human MCF7 cells assessed as increase in DNA content at G0/G1 phase measured by propidium iodide/RNAse staining based flow cytometry analysis (reference value: 57.82%); assay type: functional
[15] = target: Receptor tyrosine-protein kinase erbB-2 (Homo sapiens, UniProt P04626); assay: Inhibition of recombinant human HER2 incubated for 40 to 45 mins and measured after 15 mins by Kinase-Glo Max assay
Receptor tyrosine-protein kinase erbB-2, sequence (P04626 whole entry): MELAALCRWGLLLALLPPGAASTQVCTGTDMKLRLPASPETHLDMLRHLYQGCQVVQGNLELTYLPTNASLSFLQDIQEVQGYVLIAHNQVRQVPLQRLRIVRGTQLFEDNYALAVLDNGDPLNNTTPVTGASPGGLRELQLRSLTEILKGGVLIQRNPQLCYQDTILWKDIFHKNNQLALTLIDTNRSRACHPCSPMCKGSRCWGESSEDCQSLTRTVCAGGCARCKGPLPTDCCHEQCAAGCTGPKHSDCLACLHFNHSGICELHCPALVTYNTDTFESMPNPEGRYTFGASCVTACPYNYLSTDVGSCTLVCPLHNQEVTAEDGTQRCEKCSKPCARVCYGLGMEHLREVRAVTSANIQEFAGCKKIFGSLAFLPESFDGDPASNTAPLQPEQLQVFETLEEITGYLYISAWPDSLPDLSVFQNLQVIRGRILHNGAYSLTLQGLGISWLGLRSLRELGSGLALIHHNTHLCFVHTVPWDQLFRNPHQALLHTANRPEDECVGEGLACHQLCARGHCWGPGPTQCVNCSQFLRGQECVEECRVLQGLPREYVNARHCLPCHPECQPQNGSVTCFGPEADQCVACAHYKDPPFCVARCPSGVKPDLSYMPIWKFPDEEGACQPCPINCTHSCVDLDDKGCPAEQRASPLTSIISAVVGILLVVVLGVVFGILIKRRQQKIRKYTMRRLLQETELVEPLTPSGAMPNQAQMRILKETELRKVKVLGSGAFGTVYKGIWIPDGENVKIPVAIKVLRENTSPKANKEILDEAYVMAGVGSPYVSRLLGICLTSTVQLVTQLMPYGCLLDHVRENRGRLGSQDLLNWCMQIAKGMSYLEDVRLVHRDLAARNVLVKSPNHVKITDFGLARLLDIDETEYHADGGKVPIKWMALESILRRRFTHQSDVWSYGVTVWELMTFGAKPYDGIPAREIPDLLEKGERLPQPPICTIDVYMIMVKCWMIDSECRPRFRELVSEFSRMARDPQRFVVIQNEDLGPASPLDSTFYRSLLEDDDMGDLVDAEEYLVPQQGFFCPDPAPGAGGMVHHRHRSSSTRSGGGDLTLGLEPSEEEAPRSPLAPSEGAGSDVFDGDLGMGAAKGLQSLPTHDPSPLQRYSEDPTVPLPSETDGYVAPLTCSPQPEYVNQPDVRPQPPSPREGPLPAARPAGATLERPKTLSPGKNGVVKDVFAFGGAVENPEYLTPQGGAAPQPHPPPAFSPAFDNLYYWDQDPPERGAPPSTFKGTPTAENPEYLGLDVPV

MCF7 [16] = assay: Induction of cell cycle arrest in human MCF7 cells assessed as increase in DNA content at S phase measured by propidium iodide/RNAse staining based flow cytometry analysis (reference value: […]%); assay type: functional
MCF7 [17] = assay: Induction of necrosis in human MCF7 cells assessed as necrotic cells level measured by propidium iodide/RNAse staining based flow cytometry analysis (reference value: 0.9%); assay type: functional
Breast cancer cell line = assay: Antitumor activity in 7,12-dimethylbenz [a]anthracene-induced non-lactating mammary glands solid tumor model of female Swiss albino mouse assessed as absence of ductal carcinoma in mammary gland at 10 mg/kg, ip measured by H and E staining method; assay type: functional, organism-based
MCF7 [18] = assay: Induction of apoptosis in human MCF7 cells assessed as early apoptotic cells level measured by propidium iodide/RNAse staining based flow cytometry analysis (reference value: […]); assay type: functional

With COc1cccc2c1C(=O)c1c(O)c3c(c(O)c1C2=O)C[C@@](O)(C(=O)CO)C[C@@H]3O[C@H]1C[C@H](N)[C@H](O)[C@H](C)O1 [DOXORUBICIN] the Activity [1] was 29 g, the Activity (Breast carcinoma cell) was 1.5 and the Activity [2] was 80.4%. For the same molecule, the Activity [3] was 23.7%, the IC50 (PC-3) was 8.54 µM and the IC50 (HeLa) was 8.87 µM. For the same molecule, the Activity [4] was 0.62 mm3.

For CC(=O)NNC(=O)c1csc2ncc(-c3ccc(Br)cc3)n12, the Activity [5] was 0.742 mm3, the Activity (MCF7 [6]) was 28.04% and the IC50 (HCT-116) was 6.08 µM. It also gave an Activity [7] of 17.4%, an Activity (MCF7 [8]) of 5.24% and an IC50 [9] of 0.153 µM. The Activity [10] was 31.4 g, the IC50 (WI-38) was 54.2 µM and the Activity [11] was 76.5%. For the same molecule, the Activity (Breast carcinoma cell) was 1.33, the IC50 (MCF7 [12]) was 1.83 µM and the IC50 (HepG2) was 3.48 µM. The Activity (MCF7 [13]) was 37.67%, the IC50 (Dihydrofolate reductase) was 0.291 µM and the Activity (MCF7 [14]) was 62.61%. For the same molecule, the IC50 [15] was 0.108 µM, the Activity (MCF7 [16]) was 32.15% and the Activity (MCF7 [17]) was 6.72%. The IC50 (PC-3) was 12.7 µM, the Activity (Breast cancer cell line) was “Active” and the IC50 (HeLa) was 4.78 µM. For the same molecule, the Activity (MCF7 [18]) was 9.63%.

COc1ccc(-c2c(CN3CCOCC3)nc3scc(C(=O)NN)n23)cc1 showed an Activity [5] of 1.098 mm3, an Activity (MCF7 [6]) of 22.19% and an IC50 (HCT-116) of 16.2 µM. The Activity [7] was 7.4%, the Activity (MCF7 [8]) was 10.26% and the IC50 [9] was 0.122 µM. It also gave an Activity [10] of 35.2 g, an IC50 (WI-38) of 36.8 µM and an Activity [11] of 65.3%. It also gave an Activity (Breast carcinoma cell) of 1.17, an IC50 (MCF7 [12]) of 2.37 µM and an IC50 (HepG2) of 12.2 µM. It also gave an Activity (MCF7 [13]) of 35.46%, an IC50 (Dihydrofolate reductase) of 0.585 µM and an Activity (MCF7 [14]) of 64.25%. The IC50 [15] was 0.078 µM, the Activity (MCF7 [16]) was 25.49% and the Activity (MCF7 [17]) was 3.25%. The IC50 (PC-3) was 18.4 µM, the Activity (Breast cancer cell line) was “Active” and the IC50 (HeLa) was 9.43 µM. The Activity (MCF7 [18]) was 13.27%.
